Where a name gives a salt, the structure may show the parent alone. Read-outs that look alike come from different tables or passages of the source.
Details: 40°C±2°C, RH 75%±5%
Description: In the chromatogram of the sample solution, the chromatographic peaks with peak area smaller than 0.5 times of the main peak area of the control solution should be ignored.

For CN1[C@@H]2CC[C@H]1C[C@@H](OC(=O)C(CO)c1ccccc1)C2 (stereo partly drawn) [Example 160903-P01, atropine sulfate], the Content (0th month) was 100.3%, the Hyoscyamine (0th month) was “+0.002°” and the Moisture (0th month) was 3.15%. The Content (1st month) was 100.3%, the Hyoscyamine (1st month) was “+0.002°” and the Moisture (1st month) was 3.24%. For the same molecule, the Content (2nd month) was 100.2%, the Hyoscyamine (2nd month) was “+0.001°” and the Moisture (2nd month) was 2.97%. The Content (3rd month) was 100.4%, the Hyoscyamine (3rd month) was 0.000° and the Moisture (3rd month) was 3.49%. The Content (6th month) was 100.3%, the Hyoscyamine (6th month) was 0.000° and the Moisture (6th month) was 3.69%.
